Values quoted from earlier work as cited in patent publication US20250257354A1, “METHODS AND COMPOSITIONS RELATED TO TRNA THERAPEUTICS FOR TREATING VISION LOSS” (UNIVERSITY OF IOWA RESEARCH FOUNDATION, priority 2022, published 2025).

Conditions: ACT DMD Phase 3 NCT01826487; ACT CF NCT02139306

In the case of `O=C(O)c1cccc(-c2noc(-c3ccccc3F)n2)c1` [Ataluren], the “efficacy in patient populations” value is listed as “unexpectedly low efficacy”.
